The source of these data is PMC8197367, “Comparative Antimicrobial Activity of Hp404 Peptide and Its Analogs against Acinetobacter baumannii” (International Journal of Molecular Sciences, 2021).

Where no end group is shown, it is not given here. Where only a bound is given, the exact number is not on record here.

In one data set the test system is S. aureus ATCC 29213. In words: MIC, broth microdilution. In kind it is cell-based, Staphylococcus aureus. Particulars: two-fold broth microdilution, TSB, 2 × 10^5 CFU/mL, 37 °C, 18 h, read at 600 nm, three independent experiments. On the procedure: (§1) The experiment was performed in triplicate.
In general terms: Broth dilution looks for growth in wells or tubes with falling amounts of substance.

The test system of the next data set is S. aureus ATCC 25923. In words: MIC, broth microdilution. In kind it is cell-based, Staphylococcus aureus. Particulars: two-fold broth microdilution, TSB, 2 × 10^5 CFU/mL, 37 °C, 18 h, read at 600 nm, three independent experiments. The procedure:
as §1

For the next data set, the system named is mouse red blood cells. In words: Hemolytic assay. In kind it is cell-based. Particulars: 50 μM peptide (highest tested concentration); 8% mouse red blood cells in PBS, 1 h, 37 °C, absorbance 414 nm, vs 0.1% Triton X-100. On the procedure:
The hemolytic activity of the peptides against mouse erythrocytes was determined using red blood cells. Fresh mouse red blood cells were washed three times and resuspended in PBS to attain an 8% dilution. Peptides were serially diluted to a final concentration of 50 μM. Next, 100 µL peptide solution was added to 100 μL of mouse red blood cells, wrapped with aluminum foil and incubated for 1 h at 37 °C. The mixture was then centrifuged at 1500× g for 10 min. The supernatant was transferred into a new 96-well plate, and the absorbance of the supernatant was measured at 414 nm. As positive and negative controls, […] in mouse red blood cells were used. Hemolysis was evaluated according to the following equation:
Hemolysis (%) = [(Abs414 nm in the peptide solution − Abs414 nm in PBS)/(Abs414 nm in 0.1% Triton X-100 − Abs414 nm in PBS)] × 100.

Data set [1] deals with L. monocytogenes KCTC 3710. In words: MIC, broth microdilution. In kind it is cell-based, Listeria monocytogenes. Particulars: two-fold broth microdilution, BHI, 2 × 10^5 CFU/mL, 37 °C, 18 h, read at 600 nm, three independent experiments. On the procedure:
as §1

Data set [2] concerns S. typhimurium ATCC 14028. In words: MIC, broth microdilution. In kind it is cell-based, Salmonella typhimurium. Particulars: two-fold broth microdilution, NB, 2 × 10^5 CFU/mL, 37 °C, 18 h, read at 600 nm, three independent experiments. The procedure:
as §1

In the next data set the test system is HaCaT cells. Particulars: 50 μM peptide, 24 h, MTT assay. The procedure:
The cytotoxicity of the peptides against mammalian cells was calculated using the MTT assay. Human keratinocyte HaCaT cells were incubated in Dulbecco’s modified Eagle’s medium (DMEM) supplemented with 10% fetal bovine serum and 1% penicillin at 37 °C with 5% CO2. HaCaT cells were added at 2 × 10^5 cells/mL to DMEM supplemented with 10% fetal bovine serum and placed in 96-well plates. The plates were incubated overnight at 37 °C in a CO2 incubator. Peptides were serially diluted two-fold in DMEM, added to the cell cultures and incubated for 24 h at 37 °C. MTT solution (5 mg/mL) was added to each well and incubated for 1 h at 37 °C. The media was discarded, and the formazan crystals were dissolved in 100 μL dimethyl sulfoxide. The absorbance was measured using a Versa-Max microplate ELISA reader (Molecular Devices, Sunnyvale, CA, USA) at 570 and 650 nm. As a […], 0.1% Triton X-100 was used.
(Formazan colour is commonly taken as a measure of viable cells.)

The test system of data set [3] is A. baumannii KCTC 2508. In words: MIC, broth microdilution. In kind it is cell-based, Acinetobacter baumannii. Particulars: two-fold broth microdilution, NB, 2 × 10^5 CFU/mL, 37 °C, 18 h, read at 600 nm, no added salt, three independent experiments. The procedure: as §1
Data set [4] relates to A. baumannii KCTC 2508. Particulars: NB supplemented with 150 mM NaCl, triplicate. On the procedure: (§2) Hp1404 and its analog peptides activity against both gram-positive and gram-negative bacterial strains were tested using the broth microdilution method. Briefly, S. aureus (ATCC 25923, ATCC 29213) and B. cereus KCTC 1012 were cultured overnight at 37 °C in tryptic soy broth (TSB). P. aeruginosa ATCC 27853, K. pneumoniae KCTC 2208, A. baumannii KCTC 2508 and S. typhimurium ATCC 14028 were cultured overnight at 37 °C in nutrient broth (NB). E. coli ATCC 25922 was cultured overnight at 37 °C in luria bertani (LB). L. monocytogenes KCTC 3710 was cultured overnight at 37 °C in brain heart infusion (BHI). The cultures were diluted with fresh medium at a density of 2 × 10^5 CFU/mL. Peptides were serially diluted in sodium phosphate buffer (pH 7.2) to a final concentration of 25 μM. In a 96-well plate, 50-μL bacterial aliquots were mixed with 50 μL peptide solution. After incubation at 37 °C for 18 h, the MIC was determined using a plate reader at 600 nm. The experiment was performed in triplicate.
To determine whether antibacterial activity was affected by the presence of salts, experiments were conducted as previously reported. We determined the MICs of NB supplemented with 150 mM NaCl. MIC assays were performed as described above. The assay was performed in triplicate.

Another data set has as its system B. cereus KCTC 1012. In words: MIC, broth microdilution. Particulars: two-fold broth microdilution, TSB, 2 × 10^5 CFU/mL, 37 °C, 18 h, read at 600 nm, three independent experiments. In kind it is cell-based, Bacillus cereus. On the procedure:
as §1

The next data set deals with A. baumannii 907233. In words: microbe, parasite or virus in culture. Particulars: A. baumannii 907233 isolated from patient; broth microdilution, 37 °C, 18 h; three independent experiments.
Text: (§3) Staphylococcus aureus ATCC 25923, S. aureus ATCC 29213, P. aeruginosa ATCC 27853, Escherichia coli ATCC 25922 and Salmonella typhimurium ATCC 14028 strains were obtained from the American Type Culture Collection (ATCC, Manassas, VA, USA). Listeria monocytogenes KCTC 3710, Bacillus cereus KCTC 1012, K. pneumoniae KCTC 2208 and A. baumannii KCTC 2508 were obtained from the Korean Collection for Type Cultures (KRIBB, Daejeon, South Korea). Clinical isolates of A. baumannii strains were collected from Eulji University Hospital (Seoul, South Korea).
as §2

Another data set concerns A. baumannii #3. In words: microbe, parasite or virus in culture. Particulars: A. baumannii #3 isolated from patient; broth microdilution, 37 °C, 18 h; three independent experiments.
Text: as §3, §2

In the next data set the test system is A. baumannii 719705. In words: microbe, parasite or virus in culture. Particulars: A. baumannii 719705 isolated from patient; broth microdilution, 37 °C, 18 h; three independent experiments.
Text: as §3, §2

For another data set, the system named is A. baumannii #2. In words: microbe, parasite or virus in culture. Particulars: A. baumannii #2 isolated from patient; broth microdilution, 37 °C, 18 h; three independent experiments.
Text: as §3, §2

A further data set has as its system A. baumannii 409081. In words: microbe, parasite or virus in culture. Particulars: A. baumannii 409081 isolated from patient; broth microdilution, 37 °C, 18 h; three independent experiments.
Text: as §3, §2

The subject of another data set is A. baumannii #4. In words: microbe, parasite or virus in culture. Particulars: A. baumannii #4 isolated from patient; broth microdilution, 37 °C, 18 h; three independent experiments.
Text: as §3, §2

The subject of a further data set is E. coli ATCC 25922. In words: MIC, broth microdilution. In kind it is cell-based, Escherichia coli. Particulars: two-fold broth microdilution, LB, 2 × 10^5 CFU/mL, 37 °C, 18 h, read at 600 nm, three independent experiments. On the procedure: as §1
In the next data set the test system is P. aeruginosa ATCC 27853. In words: MIC, broth microdilution. In kind it is cell-based. Particulars: two-fold broth microdilution, NB, 2 × 10^5 CFU/mL, 37 °C, 18 h, read at 600 nm, three independent experiments. The procedure:
as §1

In the next data set the test system is K. pneumoniae KCTC 2208. In words: MIC, broth microdilution. In kind it is cell-based. Particulars: two-fold broth microdilution, NB, 2 × 10^5 CFU/mL, 37 °C, 18 h, read at 600 nm, three independent experiments. The procedure: as §1

Take GILGKLWEGVKSIV-NH2 [Hp1404-V]: the MIC is listed as 25 µM against S. aureus ATCC 29213; 6.25 µM against S. aureus ATCC 25923; 25 µM in data set [1]; 6.25 µM in data set [2]; 6.25 µM with A. baumannii KCTC 2508 [3]; 25 µM in the data set on B. cereus KCTC 1012. The MIC with A. baumannii 907233 is 6.25 µM; with A. baumannii #3, 6.25 µM; with A. baumannii 719705, 12.5 µM; against A. baumannii #2 it was 6.25 µM; with A. baumannii 409081, 6.25 µM; in the data set on A. baumannii #4 it was 6.25 µM. In addition, the MIC against E. coli ATCC 25922 was 25 µM; against P. aeruginosa ATCC 27853, above 25 µM; in the data set on K. pneumoniae KCTC 2208, above 25 µM. Also, the hemolytic activity entry in the data set on mouse red blood cells is “no hemolytic activity”. This substance had a Cell viability in the data set on HaCaT cells of 100%. Further, the “MIC in the presence of 150 mM NaCl” value with A. baumannii KCTC 2508 [4] worked out at 25 µM.
GILGKLWEGVKSII-NH2 [Hp1404-I]: the MIC against S. aureus ATCC 29213 was determined as 12.5 µM; against S. aureus ATCC 25923 it was 3.13 µM; in data set [1], 6.25 µM; in data set [2], 3.13 µM; with A. baumannii KCTC 2508 [3] it was 3.13 µM; in the data set on B. cereus KCTC 1012, 25 µM. The MIC against A. baumannii 907233 is on record as 3.13 µM; against A. baumannii #3, 3.13 µM; against A. baumannii 719705, 6.25 µM; against A. baumannii #2 it was 3.13 µM; against A. baumannii 409081 it was 3.13 µM; in the data set on A. baumannii #4, 3.13 µM. The figures for the MIC against E. coli ATCC 25922, in the data set with P. aeruginosa ATCC 27853 and against K. pneumoniae KCTC 2208 were 12.5 µM, 25 µM and 25 µM, respectively. The substance further gave a Cell viability with HaCaT cells of 100%. Besides, the “MIC in the presence of 150 mM NaCl” value in the data set on A. baumannii KCTC 2508 [4] amounted to 12.5 µM.
Turning to GILGKLWEGVKSIL-NH2 [Hp1404-L], the MIC with S. aureus ATCC 29213 came to 6.25 µM; against S. aureus ATCC 25923 it was 1.56 µM; in data set [1], 3.13 µM; in data set [2], 1.56 µM; in the data set with A. baumannii KCTC 2508 [3] it was 3.13 µM; against B. cereus KCTC 1012 it was 12.5 µM. The MIC with A. baumannii 907233, against A. baumannii #3, against A. baumannii 719705, against A. baumannii #2, in the data set on A. baumannii 409081 and in the data set on A. baumannii #4 was 3.13 µM each time. For the same substance, the MIC against E. coli ATCC 25922, against P. aeruginosa ATCC 27853 and in the data set on K. pneumoniae KCTC 2208 was 12.5 µM in each case. This substance returned a hemolytic activity in the data set with mouse red blood cells of 45.8%. In the data set on HaCaT cells, this substance registered a Cell viability of 62.4%. The “MIC in the presence of 150 mM NaCl” value with A. baumannii KCTC 2508 [4] was determined as 6.25 µM.
Regarding “GILGKLWEGVKSIF-NH2 [Hp1404, reference compound]”, the MIC against S. aureus ATCC 29213 stood at 6.25 µM; against S. aureus ATCC 25923 it was 3.13 µM; in [1], 3.13 µM; in [2], 3.13 µM; in the data set with A. baumannii KCTC 2508 [3], 3.13 µM; against B. cereus KCTC 1012, 12.5 µM. The MIC against A. baumannii 907233, against A. baumannii #3, against A. baumannii 719705, in the data set on A. baumannii #2, in the data set with A. baumannii 409081 and with A. baumannii #4 was 3.13 µM in each case. For the same substance, the MIC against E. coli ATCC 25922, against P. aeruginosa ATCC 27853 and in the data set with K. pneumoniae KCTC 2208 was 12.5 µM each time. The substance further yielded a hemolytic activity with mouse red blood cells of 49.2%. This substance displayed a Cell viability in the data set on HaCaT cells of 72.3%. Moreover, the “MIC in the presence of 150 mM NaCl” value with A. baumannii KCTC 2508 [4] worked out at 6.25 µM.
Take GILGKLWEGVKSIW-NH2 [Hp1404-W]: the MIC is on record as 12.5 µM in the data set with S. aureus ATCC 29213; 3.13 µM against S. aureus ATCC 25923; 6.25 µM in data set [1]; 3.13 µM in data set [2]; 3.13 µM in the data set on A. baumannii KCTC 2508 [3]; 25 µM in the data set on B. cereus KCTC 1012. The MIC against A. baumannii 907233, with A. baumannii #3, in the data set on A. baumannii 719705, in the data set on A. baumannii #2, with A. baumannii 409081 and with A. baumannii #4 was 3.13 µM each time. In addition, the values for the MIC in the data set with E. coli ATCC 25922, in the data set on P. aeruginosa ATCC 27853 and with K. pneumoniae KCTC 2208 were 12.5 µM, 25 µM and 12.5 µM, respectively. Moreover, the hemolytic activity in the data set on mouse red blood cells is reported as 15.9%. The substance also showed a Cell viability with HaCaT cells of 100%. Further, the “MIC in the presence of 150 mM NaCl” value with A. baumannii KCTC 2508 [4] stood at 6.25 µM.
